Measured values taken from PubChem BioAssay AID206 (DTP/NCI, 2004).
Values joined by “and” are separate entries in the source; they are usually repeats but may differ in a detail not shown here. Equal entries are not always repeated. Inconclusive results are not listed.

Tested on: nude mice, HT29 intrarenal xenograft, tumor weight T/C
Assay: NCI In Vivo Anticancer Drug Screen. Data for tumor model HT29;CX-1 Human Adenocarcinoma (MER+) (intrarenal inoculation) in NU/NU Swiss (nude) mice
Conditions: endpoint: mean tumor weight change, higher = larger tumour
How it was run: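 Tumor-bearing mice received test compound or vehicle, and tumor size or survival was recorded. Values are the treated-group measurement divided by the vehicle-treated control measurement.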

[1] = dose: 600.0 mg/kg/injection, schedule: Q04DX004 (sc), vehicle: saline with Tween-80
[2] = dose: 1200.0 mg/kg/injection, schedule: Q04DX004 (sc), vehicle: saline with Tween-80
[3] = dose: 150.0 mg/kg/injection, schedule: Q04DX004 (sc), vehicle: saline with Tween-80

NC(Cc1ccc(N(CCCl)CCCl)cc1)C(=O)O (stereo not drawn)
T/C (dose: 5.0 mg/kg/injection, schedule: Q04DX004 (sc), vehicle: Klucel (hydroxypropylcellulose) (HPC)): 70 % of control
T/C (dose: 10.0 mg/kg/injection, schedule: Q04DX004 (sc), vehicle: Klucel (hydroxypropylcellulose) (HPC)): 36 % of control and 53 % of control
T/C (dose: 20.0 mg/kg/injection, schedule: Q04DX004 (sc), vehicle: Klucel (hydroxypropylcellulose) (HPC)): -16 % of control

CCC(=O)N(C)[C@@H](C)C(=O)O[C@H]1CC(=O)N(C)c2cc(cc(OC)c2Cl)C/C(C)=C/C=C[C@@H](OC)[C@@]2(O)C[C@H](OC(=O)N2)[C@@H](C)[C@@H]2O[C@@]12C
T/C (dose: 0.03 mg/kg/injection, schedule: Q01DX010 (sc), vehicle: saline + alcohol): 171 % of control
T/C (dose: 0.06 mg/kg/injection, schedule: Q01DX010 (sc), vehicle: saline + alcohol): 65 % of control
T/C (dose: 0.07 mg/kg/injection, schedule: Q01DX010 (sc), vehicle: saline + alcohol): 120 % of control
T/C (dose: 0.12 mg/kg/injection, schedule: Q01DX010 (sc), vehicle: saline + alcohol): 34 % of control
T/C (dose: 0.13 mg/kg/injection, schedule: Q01DX010 (sc), vehicle: saline + alcohol): 69 % of control
T/C (dose: 0.25 mg/kg/injection, schedule: Q01DX010 (sc), vehicle: saline + alcohol): 2 % of control and 18 % of control

CN(C)C(=O)c1cccc(COc2ccc(N3C(N)=NC(N)=NC3(C)C)cc2Cl)c1
T/C (dose: 12.5 mg/kg/injection, schedule: Q01DX010 (sc), vehicle: water): 82 % of control

CCCCCCCC(=O)N/N=C(\CO)[C@]1(O)Cc2c(O)c3c(c(O)c2[C@@H](OC2CC(N)C(O)C(C)O2)C1)C(=O)c1c(OC)cccc1C3=O (stereo partly drawn)
T/C (dose: 31.25 mg/kg/injection, schedule: Q04DX004 (sc), vehicle: water): 2 % of control
T/C (dose: 32.5 mg/kg/injection, schedule: Q04DX004 (sc), vehicle: water): 102 % of control
T/C (dose: 62.5 mg/kg/injection, schedule: Q04DX004 (sc), vehicle: water): 51 % of control
T/C (dose: 65.0 mg/kg/injection, schedule: Q04DX004 (sc), vehicle: water): 34 % of control
T/C (dose: 130.0 mg/kg/injection, schedule: Q04DX004 (sc), vehicle: water): 46 % of control
T/C (dose: 250.0 mg/kg/injection, schedule: Q04DX004 (sc), vehicle: water): 10 % of control
T/C (dose: 260.0 mg/kg/injection, schedule: Q04DX004 (sc), vehicle: water): 19 % of control

CC(=O)O[C@@H]1CO[C@H]2O[C@H]3[C@@H](C(C=O)=C[C@H](O)[C@@H]4C5=C(C(C)C)CC[C@]5(C)CC[C@@]34C)[C@@]2(O)C1=O
T/C (dose: 12.5 mg/kg/injection, schedule: Q04DX004 (sc), vehicle: Klucel (hydroxypropylcellulose) (HPC)): 110 % of control
T/C (dose: 25.0 mg/kg/injection, schedule: Q04DX004 (sc), vehicle: Klucel (hydroxypropylcellulose) (HPC)): 83 % of control
T/C (dose: 50.0 mg/kg/injection, schedule: Q04DX004 (sc), vehicle: Klucel (hydroxypropylcellulose) (HPC)): 76 % of control
T/C (dose: 100.0 mg/kg/injection, schedule: Q04DX004 (sc), vehicle: Klucel (hydroxypropylcellulose) (HPC)): 58 % of control

CCCC(=O)Nc1ncnc2c1ncn2C1OC2COP(=O)(O)OC2C1OC(=O)CCC (stereo not drawn)
T/C (dose: 100.0 mg/kg/injection, schedule: Q01DX010 (sc), vehicle: saline): 106 % of control
T/C (dose: 200.0 mg/kg/injection, schedule: Q01DX010 (sc), vehicle: saline): 18 % of control
T/C (dose: 400.0 mg/kg/injection, schedule: Q01DX010 (sc), vehicle: saline): 80 % of control
T/C (dose: 800.0 mg/kg/injection, schedule: Q01DX010 (sc), vehicle: saline): 44 % of control

COC1/C=C/C=C(/C)Cc2cc(O)c(Cl)c(c2)N(C)C(=O)CC(OC(=O)C(C)C)C2(C)OC2C(C)C2CC1(O)NC(=O)O2 (stereo not drawn)
T/C (dose: 0.5 mg/kg/injection, schedule: Q04DX004 (sc), vehicle: saline + alcohol): 123 % of control
T/C (dose: 1.0 mg/kg/injection, schedule: Q04DX004 (sc), vehicle: saline + alcohol): 78 % of control
T/C (dose: 2.0 mg/kg/injection, schedule: Q04DX004 (sc), vehicle: saline + alcohol): 78 % of control
T/C (dose: 4.0 mg/kg/injection, schedule: Q04DX004 (sc), vehicle: saline + alcohol): 65 % of control

[I][Hg][CH2]C1COC([CH2][Hg][I])CO1 (stereo not drawn)
T/C (dose: 300.0 mg/kg/injection, schedule: Q04DX004 (sc), vehicle: saline with Tween-80): 54 % of control
T/C [1]: 55 % of control
T/C [2]: 57 % of control
T/C (dose: 2400.0 mg/kg/injection, schedule: Q04DX004 (sc), vehicle: saline with Tween-80): 32 % of control

CCCCn1cnc2c(=S)nc[nH]c21
T/C (dose: 150.0 mg/kg/injection, schedule: Q04DX004 (sc), vehicle: suspension in saline): 68 % of control
T/C (dose: 300.0 mg/kg/injection, schedule: Q04DX004 (sc), vehicle: suspension in saline): 120 % of control
T/C (dose: 600.0 mg/kg/injection, schedule: Q04DX004 (sc), vehicle: suspension in saline): 150 % of control

COc1cc(C(=O)N/N=C/c2cccc([N+](=O)[O-])c2)cc(OC)c1OC
T/C [3]: 91 % of control
T/C [1]: 70 % of control
T/C [2]: 120 % of control

CCC(C(=O)O)C(=O)O.[NH-]CC1CCCC[N-]1.[Pt+2]
T/C (dose: 50.0 mg/kg/injection, schedule: Q04DX004 (sc), vehicle: saline): 113 % of control
T/C (dose: 100.0 mg/kg/injection, schedule: Q04DX004 (sc), vehicle: saline): 96 % of control
T/C (dose: 200.0 mg/kg/injection, schedule: Q04DX004 (sc), vehicle: saline): 79 % of control
T/C (dose: 400.0 mg/kg/injection, schedule: Q04DX004 (sc), vehicle: saline): 59 % of control

CCC[CH2][Hg][Cl]
T/C (dose: 9.38 mg/kg/injection, schedule: Q04DX004 (sc), vehicle: Klucel (hydroxypropylcellulose) (HPC)): 83 % of control
T/C (dose: 18.75 mg/kg/injection, schedule: Q04DX004 (sc), vehicle: Klucel (hydroxypropylcellulose) (HPC)): 72 % of control
T/C (dose: 37.5 mg/kg/injection, schedule: Q04DX004 (sc), vehicle: Klucel (hydroxypropylcellulose) (HPC)): 45 % of control

Cc1ccc2c(ccc(CC(=S)[S-])[n+]2C)c1
T/C (dose: 50.0 mg/kg/injection, schedule: Q01DX010 (sc), vehicle: Klucel (hydroxypropylcellulose) (HPC)): 96 % of control
T/C (dose: 100.0 mg/kg/injection, schedule: Q01DX010 (sc), vehicle: Klucel (hydroxypropylcellulose) (HPC)): 85 % of control
T/C (dose: 200.0 mg/kg/injection, schedule: Q01DX010 (sc), vehicle: Klucel (hydroxypropylcellulose) (HPC)): 44 % of control
T/C (dose: 400.0 mg/kg/injection, schedule: Q01DX010 (sc), vehicle: Klucel (hydroxypropylcellulose) (HPC)): 67 % of control

CSc1cc(=O)n2c3ccccc3c3ccnc1c32
T/C (dose: 80.0 mg/kg/injection, schedule: Q04DX004 (sc), vehicle: saline with Tween-80): 88 % of control
T/C (dose: 160.0 mg/kg/injection, schedule: Q04DX004 (sc), vehicle: saline with Tween-80): 91 % of control
T/C (dose: 320.0 mg/kg/injection, schedule: Q04DX004 (sc), vehicle: saline with Tween-80): 110 % of control
T/C (dose: 640.0 mg/kg/injection, schedule: Q04DX004 (sc), vehicle: saline with Tween-80): 58 % of control

CCN(CC)CCOCCO
T/C (dose: 150.0 mg/kg/injection, schedule: Q04DX004 (sc), vehicle: saline): 113 % of control
T/C (dose: 300.0 mg/kg/injection, schedule: Q04DX004 (sc), vehicle: saline): 89 % of control

O=Cc1ccccc1
T/C (dose: 200.0 mg/kg/injection, schedule: Q04DX004 (sc), vehicle: Klucel (hydroxypropylcellulose) (HPC)): 119 % of control
T/C (dose: 400.0 mg/kg/injection, schedule: Q04DX004 (sc), vehicle: Klucel (hydroxypropylcellulose) (HPC)): 107 % of control

C=C1C(=O)OCC1C(=O)O (stereo not drawn)
T/C (dose: 50.0 mg/kg/injection, schedule: Q04DX004 (sc), vehicle: suspension in saline): 87 % of control
T/C (dose: 100.0 mg/kg/injection, schedule: Q04DX004 (sc), vehicle: suspension in saline): 48 % of control
T/C (dose: 200.0 mg/kg/injection, schedule: Q04DX004 (sc), vehicle: suspension in saline): 48 % of control

O=C1[C@H]2CCC[C@H]2[C@H]2CCC[C@@H]12
T/C (dose: 100.0 mg/kg/injection, schedule: Q04DX004 (sc), vehicle: saline with Tween-80): 67 % of control
T/C (dose: 200.0 mg/kg/injection, schedule: Q04DX004 (sc), vehicle: saline with Tween-80): 44 % of control
T/C (dose: 400.0 mg/kg/injection, schedule: Q04DX004 (sc), vehicle: saline with Tween-80): 83 % of control
T/C (dose: 800.0 mg/kg/injection, schedule: Q04DX004 (sc), vehicle: saline with Tween-80): 82 % of control

OC1CCCC2CCCNC12 (stereo not drawn)
T/C (dose: 37.5 mg/kg/injection, schedule: Q04DX004 (sc), vehicle: saline with Tween-80): 85 % of control
T/C (dose: 75.0 mg/kg/injection, schedule: Q04DX004 (sc), vehicle: saline with Tween-80): 77 % of control
T/C [3]: 83 % of control
